Assay results: patent US4302540A, “Process of producing optically active cephalosporin analogs by enzyme selective deacylation” (Kyowa Hakko Kogyo Co., Ltd., priority 1979, dated 1981)
In brackets after ≈: the same amount, converted by molar mass. Like-named read-outs stand apart in the source and are kept apart here.

Columns and labels:
Assay in all cases: Antimicrobial activity, Heart Infusion Agar Dilution Method (pH 7.2)
Assay type in all cases: cell-based
[1] = test system: Escherichia coli GN2411-5
Description: (§1) Antimicrobial activities of the compound obtained in Reference Example 9 are as follows. Heart Infusion Agar Dilution Method (pH 7.2) is used.

[2] = test system: Staphylococcus aureus Smith
Description: as §1

[3] = test system: Pseudomonas putida 264
Description: as §1

[4] = test system: Proteus morganii KY 4298
Description: as §1

[5] = test system: Staphylococcus aureus 209-P
Description: as §1

[6] = test system: Proteus vulgaris 6897
Description: as §1

[7] = test system: Pseudomonas aeruginosa #1
Description: as §1

[8] = test system: Staphylococcus epidermidis
Description: as §1

[9] = test system: Serratia marcescens T-55; details: T55
Description: as §1

[10] = test system: Proteus rettgeri KY 4289; details: Providencia rettgeri, KY4289
Description: as §1

[11] = test system: Pseudomonas aeruginosa 145
Description: as §1

[12] = test system: Serratia marcescens T-26
[13] = test system: Klebsiella pneumoniae Y-60; details: Y60
[14] = test system: Proteus mirabilis 1287
[15] = test system: Klebsiella pneumoniae 8045
[16] = test system: Escherichia coli NIHJC-2; details: NIHJC2
[17] = test system: Escherichia coli Juhl
[18] = Morganella morganii, KY4298, read-out: MIC

Row | MIC [1] | MIC [2] | MIC ([3]; read-out: MIC) | MIC [4, 18] | MIC [6] | MIC ([8]; read-out: MIC) | MIC [9] | MIC [10] | MIC ([11]; read-out: MIC) | MIC [13] | MIC [14] | MIC [15] | MIC [16] | MIC [17] | SMILES | further results
1 | 0.78 µg/mL (≈ 1.72 µM) | 0.78 µg/mL (≈ 1.72 µM) | > 100 µg/mL | > 100 µg/mL | 25 µg/mL (≈ 55 µM) | 0.78 µg/mL (≈ 1.72 µM) | > 100 µg/mL | 25 µg/mL (≈ 55 µM) | > 100 µg/mL | 3.12 µg/mL (≈ 6.86 µM) | 12.5 µg/mL (≈ 27.5 µM) | – | – | – | Cc1nnc(SCC2=C(C(=O)O)N3C(=O)[C@@H](NC(=O)Cn4cnnn4)[C@H]3SC2)s1 [Cefazolin, reference compound] | MIC [5]: 0.02 µg/mL (≈ 0.044 µM); MIC ([7]; read-out: MIC): > 100 µg/mL; MIC ([12]; T26, read-out: MIC): > 100 µg/mL
2 | – | – | – | – | – | – | – | – | – | – | – | – | – | – | N[C@@H](C(=O)NC1C(=O)N2C(C(=O)O)=CC(O)CC12)c1ccccc1 (stereo in doubt) [C, cis-7β-[(R)-2-phenylglycinamido]-4α-hydroxy-1-azabicyclo[4,2,0]oct-2-en-8-on-2-carboxylic acid] | MIC [3]: 12.5 µg/mL (≈ 37.7 µM); MIC [4]: 12.5 µg/mL (≈ 37.7 µM); MIC [7]: > 100 µg/mL; MIC [8]: 12.5 µg/mL (≈ 37.7 µM); MIC [11]: > 100 µg/mL; MIC [12]: 100 µg/mL (≈ 302 µM)
3 | 0.02 µg/mL (≈ 0.0524 µM) | 25 µg/mL (≈ 65.6 µM) | 0.02 µg/mL (≈ 0.0524 µM) | 0.05 µg/mL (≈ 0.131 µM) | 0.1 µg/mL (≈ 0.262 µM) | 50 µg/mL (≈ 131 µM) | 0.02 µg/mL (≈ 0.0524 µM) | < 0.01 µg/mL | 12.5 µg/mL (≈ 32.8 µM) | 0.02 µg/mL (≈ 0.0524 µM) | 0.1 µg/mL (≈ 0.262 µM) | 0.02 µg/mL (≈ 0.0524 µM) | 0.05 µg/mL (≈ 0.131 µM) | 0.05 µg/mL (≈ 0.131 µM) | CO/N=C(\C(=O)N[C@@H]1C(=O)N2C(C(=O)O)=C[C@@H](O)C[C@H]12)c1csc(N)n1 (relative stereo) [B, (±)-cis-7β-[2-(2-amino-4-thiazolyl)-2-syn-methoxyiminoacetamido]-4α-hydroxy-1-azabicyclo[4,2,0]oct-2-en-8-on-2-carboxylic acid] | –
4 | ≤ 0.01 µg/mL | 12.5 µg/mL (≈ 32.8 µM) | 0.02 µg/mL (≈ 0.0524 µM) | ≤ 0.01 µg/mL | ≤ 0.01 µg/mL | 25 µg/mL (≈ 65.6 µM) | 0.05 µg/mL (≈ 0.131 µM) | ≤ 0.01 µg/mL | 6.25 µg/mL (≈ 16.4 µM) | ≤ 0.01 µg/mL | 0.05 µg/mL (≈ 0.131 µM) | ≤ 0.01 µg/mL | 0.02 µg/mL (≈ 0.0524 µM) | ≤ 0.01 µg/mL | CO/N=C(\C(=O)N[C@@H]1C(=O)N2C(C(=O)O)=C[C@@H](O)C[C@H]12)c1csc(N)n1 [A, (4S,6R,7S)-7-[2-(2-amino-4-thiazolyl)-2-syn-methoxyiminoacetamido]-4-hydroxy-1-azabicyclo[4,2,0]oct-2-en-8-on-2-carboxylic acid] | –
